Test results taken from patent publication US11242344B2, “(4-hydroxypyrrolidin-2-yl)-heterocyclic compounds and methods of use thereof” (Genentech, Inc., priority 2017, dated 2022).

Legend:
[1] = molecular target: VHL Elongin B/C complex (Homo sapiens (Human), UniProt P40337); test: Fluorescence Polarization (FP) VHL Binding Assay; settings: VHL binding, FP assay; geometric mean where more than one measurement
Method in brief: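 Readout is polarization of a TAMRA-coupled VHL ligand (1.67 nM final) displaced from the VHL(E55-D213)/Elongin B/C complex (2.64 nM final) after 1 h incubation at room temperature in pH 8.0 Tris buffer with 1% DMSO. Data normalized to no-VHL and compound-free controls, with compound fluorescence subtracted, and fitted by four-parameter curve for IC50.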

[2] = molecular target: VHL co-expressed with Elongins B and C (Homo sapiens (Human), UniProt P40337); test: Surface Plasmon Resonance Assay; assay type: binding; settings: SPR measured VHL affinity; geometric mean where more than one measurement
VHL co-expressed with Elongins B and C, sequence (P40337 whole entry, looked up): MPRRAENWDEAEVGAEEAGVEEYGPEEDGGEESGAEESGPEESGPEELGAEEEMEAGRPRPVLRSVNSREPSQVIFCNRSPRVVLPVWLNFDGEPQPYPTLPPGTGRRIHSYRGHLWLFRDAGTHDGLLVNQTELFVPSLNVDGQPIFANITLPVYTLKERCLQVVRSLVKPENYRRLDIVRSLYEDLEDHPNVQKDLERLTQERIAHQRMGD
VHL co-expressed with Elongins B and C, sequence (Q15370 whole entry partner, looked up): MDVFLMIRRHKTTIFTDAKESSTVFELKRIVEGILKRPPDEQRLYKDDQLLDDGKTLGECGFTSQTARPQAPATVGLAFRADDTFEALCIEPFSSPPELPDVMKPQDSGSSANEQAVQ
VHL co-expressed with Elongins B and C, sequence (Q15369 whole entry partner, looked up): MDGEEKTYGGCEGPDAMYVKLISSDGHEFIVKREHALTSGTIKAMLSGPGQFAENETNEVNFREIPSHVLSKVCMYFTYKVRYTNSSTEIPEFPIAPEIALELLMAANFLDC
Method in brief: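 Binding kinetics by SPR at 20 °C: compound concentration series run from low to high at 80 μL/min over VHL–Elongin B/C complex, immobilized via avidin tag on SA chip. Buffer was HEPES pH 7.2 with 150 mM NaCl, TCEP, Tween 20, PEG3350 and 2% DMSO; association/dissociation times adjusted per compound.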

[3] = molecular target: NanoLuc VHL fusion protein (Homo sapiens (Human), UniProt P40337); test: VHL HEK-293 BRET Assay (NanoBRET Target Engagement); assay type: cell-based; settings: geometric mean where more than one measurement
NanoLuc VHL fusion protein, sequence (P40337 whole entry, looked up, the tested form may be a part): as the sequence (P40337 whole entry, looked up) above
NanoLuc VHL fusion protein, sequence (Q15370 whole entry partner, looked up, the tested form may be a part): as the sequence (Q15370 whole entry partner, looked up) above
NanoLuc VHL fusion protein, sequence (Q15369 whole entry partner, looked up, the tested form may be a part): as the sequence (Q15369 whole entry partner, looked up) above
Method in brief: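 HEK293 cells stably expressing NanoLuc-VHL, 2 h with compound titration and 1 uM final tracer, then Nano-Glo substrate plus extracellular NanoLuc inhibitor. BRET ratio 610/460 nm, background-corrected with no-tracer wells, normalised to DMSO and 10 uM unlabeled VHL antagonist controls; IC50 by four-parameter fit.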

VHL Elongin B/C complex, sequence (P40337 whole entry, looked up): as the sequence (P40337 whole entry, looked up) above
VHL Elongin B/C complex, sequence (Q15370 whole entry partner, looked up): as the sequence (Q15370 whole entry partner, looked up) above
VHL Elongin B/C complex, sequence (Q15369 whole entry partner, looked up): as the sequence (Q15369 whole entry partner, looked up) above

IC50 [1] [µM]	Kd [2] [µM]	IC50 [3] [µM]	Structure (SMILES)
0.418	0.128	0.939	Cc1ncsc1-c1ccc([C@]2(C)NC(C3C[C@@H](O)CN3C(=O)C(c3cn(C)nn3)C(C)C)=NC2=O)cc1 (single isomer, unassigned) [Example 118.2]
≥ 400	150	100	Cc1noc(C(C(=O)N2C[C@H](O)CC2C2=NC(=O)[C@](C)(c3ccc(-c4scnc4C)cc3)N2)C(C)C)n1 (single isomer, unassigned) [Example 117.4]
23.3	12.1	66.4	Cc1ncsc1-c1ccc([C@]2(C)NC(C3C[C@@H](O)CN3C(=O)[C@@H]3CCCN3S(C)(=O)=O)=NC2=O)cc1 (single isomer, unassigned) [Example 112.1]
65.5	29.2	100	CC(=O)N1CCC[C@H]1C(=O)N1C[C@H](O)CC1C1=NC(=O)[C@](C)(c2ccc(-c3scnc3C)cc2)N1 (single isomer, unassigned) [Example 121.1]
≥ 400	150	100	Cc1cc(C(C(=O)N2C[C@H](O)CC2C2=NC(=O)[C@](C)(c3ccc(-c4scnc4C)cc3)N2)C(C)C)sn1 (single isomer, unassigned) [Example 119.1]
4.68	3.98	5.48	Cc1ncsc1-c1ccc([C@]2(C)NC(C3C[C@@H](O)CN3C(=O)[C@H](C(C)C)N3Cc4ccccc4C3=O)=NC2=O)cc1 (single isomer, unassigned) [Example 123.2]
79	48.1	100	Cc1cc([C@@H](C(=O)N2C[C@H](O)C[C@H]2C2=NOC(C)(c3ccc(-c4scnc4C)cc3)N2)C(C)C)on1 (single isomer, unassigned) [Example 129.1]
≥ 400	150	100	Cc1cc(C(C(=O)N2C[C@H](O)CC2C2=NC(=O)[C@](C)(c3ccc(-c4scnc4C)cc3)N2)C(C)C)sn1 (single isomer, unassigned) [Example 119.4]
≥ 400	≥ 150	100	Cc1ncsc1-c1ccc([C@]2(C)NC(C3C[C@@H](O)CN3C(=O)C3N(S(C)(=O)=O)CCC3(C)C)=NC2=O)cc1 (single isomer, unassigned) [Example 125.2]
58.4	57	77.9	Cc1cc([C@@H](C(=O)N2C[C@H](O)C[C@H]2C2=NOC(C)(c3ccc(-c4scnc4C)cc3)N2)C(C)C)on1 (single isomer, unassigned) [Example 129.2]
≥ 400	150	≥ 100	Cc1ncsc1-c1ccc([C@]2(C)NC(C3C[C@@H](O)CN3C(=O)C(c3cnn(C)c3)C(C)C)=NC2=O)cc1 (single isomer, unassigned) [Example 110.4]
150	21.2	100	Cc1ncsc1-c1ccc([C@]2(C)NC(C3C[C@@H](O)CN3C(=O)C(c3cn(C)nn3)C(C)C)=NC2=O)cc1 (single isomer, unassigned) [Example 118.3]
1.62	0.625	1.9	Cc1noc(C(C(=O)N2C[C@H](O)CC2C2=NC(=O)[C@](C)(c3ccc(-c4scnc4C)cc3)N2)C(C)C)n1 (single isomer, unassigned) [Example 117.2]
20.6	7.42	28.1	Cc1ncsc1-c1ccc([C@]2(C)NC(C3C[C@@H](O)CN3C(=O)C(c3cnn(C)c3)C(C)C)=NC2=O)cc1 (single isomer, unassigned) [Example 110.1]
111	31.8	≥ 100	Cc1ncsc1-c1ccc([C@]2(C)NC(C3C[C@@H](O)CN3C(=O)[C@@H](NC(=O)C3(C#N)CC3)C(C)(C)C)=NC2=O)cc1 (single isomer, unassigned) [Example 111.1]
≥ 400	≥ 150	100	CC(=O)N1CCCCC1C(=O)N1C[C@H](O)CC1C1=NC(=O)[C@](C)(c2ccc(-c3scnc3C)cc2)N1 (single isomer, unassigned) [Example 124.1]
179	14.7	100	Cc1ncsc1-c1ccc([C@]2(C)NC(C3C[C@@H](O)CN3C(=O)C3N(S(C)(=O)=O)CCC3(C)C)=NC2=O)cc1 (single isomer, unassigned) [Example 125.1]

Second part, the compound before the results:

Structure (SMILES)	IC50 [1] [µM]	Kd [2] [µM]	IC50 [3] [µM]
Cc1cc([C@H](C(=O)N2C[C@H](O)C[C@H]2C2=NOC(C)(c3ccccc3)N2)C(C)C)on1 (single isomer, unassigned) [Example 128.4]	17.3	7.5	24.5
CCN1N=C([C@@H]2C[C@@H](O)CN2C(=O)C(c2cc(C)no2)C(C)C)NC1(C)C (single isomer, unassigned) [Example 115.2]	40.7	4.03	25.7
Cc1cc([C@H](C(=O)N2C[C@H](O)C[C@H]2C2=NO[C@@](c3ccccc3)(C(F)(F)F)N2)C(C)C)on1 (mixture of isomers) [Example 114.1, (2S)-1-((2S,4R)-4-Hydroxy-2-(5-phenyl-5-(trifluoromethyl)-4,5-dihydro-1,2,4-oxadiazol-3-yl)pyrrolidin-1-yl)-3-methyl-2-(3-methylisoxazol-5-yl)butan-1-one and (2R)-1-((2S,4R)-4-Hydroxy-2-(5-phenyl-5-(trifluoromethyl)-4,5-dihydro-1,2,4-oxadiazol-3-yl)pyrrolidin-1-yl)-3-methyl-2-(3-methylisoxazol-5-yl)butan-1-one]	400	150	100
Cc1cc([C@@H](C(=O)N2C[C@H](O)C[C@H]2C2=NOC(c3ccc(Br)cc3)(C(F)(F)F)N2)C(C)C)on1 (single isomer, unassigned) [Example 133.1]	≥ 400	≥ 150	100
CC(=O)N1CCCCC1C(=O)N1C[C@H](O)CC1C1=NC(=O)[C@](C)(c2ccc(-c3scnc3C)cc2)N1 (single isomer, unassigned) [Example 124.3]	≥ 400	≥ 150	100
CC(=O)N1CCCCC1C(=O)N1C[C@H](O)CC1C1=NC(=O)[C@](C)(c2ccc(-c3scnc3C)cc2)N1 (single isomer, unassigned) [Example 124.2]	32.9	10.1	54.6
Cc1cc(C(C(=O)N2C[C@H](O)C[C@H]2C2=NN(c3ccccc3)C(C)(C)N2)C(C)C)on1 (single isomer, unassigned) [Example 135.2]	9.32	6.55	5.67
Cc1cc([C@H](C(=O)N2C[C@H](O)C[C@H]2C2=NOC(C)(c3ccccc3)N2)C(C)C)on1 (single isomer, unassigned) [Example 128.3]	33.6	5.7	10.7
Cc1cc([C@H](C(=O)N2C[C@H](O)C[C@H]2C2=NO[C@](c3ccccc3)(C(F)(F)F)N2)C(C)C)on1 (mixture of isomers) [Example 114.4, (2S)-1-((2S,4R)-4-Hydroxy-2-(5-phenyl-5-(trifluoromethyl)-4,5-dihydro-1,2,4-oxadiazol-3-yl)pyrrolidin-1-yl)-3-methyl-2-(3-methylisoxazol-5-yl)butan-1-one and (2R)-1-((2S,4R)-4-Hydroxy-2-(5-phenyl-5-(trifluoromethyl)-4,5-dihydro-1,2,4-oxadiazol-3-yl)pyrrolidin-1-yl)-3-methyl-2-(3-methylisoxazol-5-yl)butan-1-one]	58.3	5.86	59.9
Cc1cc([C@@H](C(=O)N2C[C@H](O)C[C@H]2C2=NOC(C)(c3ccc(Br)cc3)N2)C(C)C)on1 (mixture of isomers) [Example 113.1, (2S)-1-((2S,4R)-2-(5-(4-Bromophenyl)-5-methyl-4,5-dihydro-1,2,4-oxadiazol-3-yl)-4-hydroxypyrrolidin-1-yl)-3-methyl-2-(3-methylisoxazol-5-yl)butan-1-one and (2R)-1-((2S,4R)-2-(5-(4-Bromophenyl)-5-methyl-4,5-dihydro-1,2,4-oxadiazol-3-yl)-4-hydroxypyrrolidin-1-yl)-3-methyl-2-(3-methylisoxazol-5-yl)butan-1-one]	70.6	24.1	96.9
CC/C(=C(\c1ccc(O)cc1)c1ccc(OCCN(C)C(=O)CCCOCCOc2cc(C(C(=O)N3C[C@H](O)CC3C3=NC(=O)[C@](C)(c4ccc(-c5scnc5C)cc4)N3)C(C)C)on2)cc1)c1ccccc1 (single isomer, unassigned) [Example 1003.4]	≥ 100	67.1	≥ 100
Cc1cc([C@H](C(=O)N2C[C@H](O)C[C@H]2C2=NOC(c3ccccc3)(c3ccccc3)N2)C(C)C)on1 [Example 132.2, (R)-1-((2S,4R)-2-(5,5-diphenyl-4,5-dihydro-1,2,4-oxadiazol-3-yl)-4-hydroxypyrrolidin-1-yl)-3-methyl-2-(3-methylisoxazol-5-yl)butan-1-one]	45.7	12.6	39.4
Cc1cc(C(C(=O)N2C[C@H](O)C[C@H]2C2=NN(c3ccccc3)C(C)(C)N2)C(C)C)on1 (single isomer, unassigned) [Example 135.1]	≥ 400	≥ 150	100
